Test results published in patent publication US12686680B2, “Substituted pyrazolo[1,5-α]pyrimidines as CRF receptor antagonists” (Neurocrine Biosciences, Inc., priority 2019, dated 2026).
Where a name gives a salt, the structure may show the parent alone. Each block holds one molecule with its values, some of them ahead of it.

Legend:
[1] = Solubility determination of solid forms of Compound 1 in solvents (Example 52); assay type: physicochemical
From the text: X-Ray Powder diffraction (XRPD), differential scanning calorimetry (DSC), thermal gravimetric analysis (TGA), and UV-Metric/pH-Metric Titration (SiriusT3) were used to characterize Form I of Compound 1. UPLC was used to evaluate solubility of each material in various vehicles.

[2] = Solubility determination of Compound 1 Form I in various vehicles (Example 60); assay type: physicochemical
Procedure: The solubility of Compound 1 Form I was evaluated in various vehicles in an attempt to achieve doses of 0.5 mg/mL (IV) and 1.0 mg/mL (PO). […] Vortex mixing and sonication were used to dissolve particles, then samples were transferred to 0.22 μm nylon centrifuge tube filters and centrifuged for approximately 2 minutes @10,000 rpm. All samples were diluted with the method diluent (if necessary) and analyzed by HPLC providing the results shown in the below Table.

SMILES: CCCN(Cc1ccc(-c2csc(N(C)C)n2)cc1)c1cc(C)nc2c(-c3cnc(N(C)C)cc3C)c(C)nn12 [Compound 1-1 (FB), 5-{7-[({4-[2-(dimethylamino)-1,3-thiazol-4-yl]phenyl}methyl)(propyl)amino]-2,5-dimethylpyrazolo[1,5-a]pyrimidin-3-yl}-N,N,4-trimethylpyridin-2-amine]
Solubility ([1]; 50 mM CB pH 3): 1.7 mg/mL FB
Measured pH ([1]; 50 mM CB pH 4): pH 4.1
Solubility ([1]; 50 mM CB pH 4): 0 mg/mL FB
Measured pH ([1]; 50 mM CB pH 5): pH 4.4
Solubility ([1]; 50 mM CB pH 5): 0 mg/mL FB
Measured pH ([1]; 50 mM CB pH 6): pH 6.1
Solubility ([1]; 50 mM CB pH 6): 0 mg/mL FB
Solubility ([1]; 50 mM PB pH 1): 14.9 mg/mL FB
Measured pH ([1]; 50 mM PB pH 2): pH 2.7
Solubility ([1]; 50 mM PB pH 2): 6.5 mg/mL FB
Measured pH ([1]; 50 mM PB pH 7): pH 7.0
Solubility ([1]; 50 mM PB pH 7): 0 mg/mL FB
Measured pH ([1]; 100% H2O): pH 6.7
Solubility ([1]; 100% H2O): 0 mg/mL FB

SMILES: CCCN(Cc1ccc(-c2csc(N(C)C)n2)cc1)c1cc(C)nc2c(-c3cnc(N(C)C)cc3C)c(C)nn12 [Compound 1 Form I, 5-{7-[({4-[2-(dimethylamino)-1,3-thiazol-4-yl]phenyl}methyl)(propyl)amino]-2,5-dimethylpyrazolo[1,5-a]pyrimidin-3-yl}-N,N,4-trimethylpyridin-2-amine]
Final/Actual pH ([2]; 50 mM Citrate, pH 2): 3.1
Solubility <USP 34> ([2]; 50 mM Citrate, pH 2): Slightly Soluble
[Compound 1] ([2]; 50 mM Citrate, pH 2): 3.3 mg/mL
Final/Actual pH ([2]; 50 mM Citrate, pH 3): 3.3
Solubility <USP 34> ([2]; 50 mM Citrate, pH 3): Slightly Soluble
[Compound 1] ([2]; 50 mM Citrate, pH 3): 1.7 mg/mL
Final/Actual pH ([2]; 50 mM Citrate, pH 4): 4.1
Solubility <USP 34> ([2]; 50 mM Citrate, pH 4): Practically
[Compound 1] ([2]; 50 mM Citrate, pH 4): ~0 mg/mL
Final/Actual pH ([2]; 50 mM Citrate, pH 5): 5.0
Solubility <USP 34> ([2]; 50 mM Citrate, pH 5): Practically
[Compound 1] ([2]; 50 mM Citrate, pH 5): ~0 mg/mL
Final/Actual pH ([2]; 50 mM Citrate, pH 6): 6.1
Solubility <USP 34> ([2]; 50 mM Citrate, pH 6): Practically
[Compound 1] ([2]; 50 mM Citrate, pH 6): ~0 mg/mL
Final/Actual pH ([2]; 50 mM Citrate, pH 7): 7.1
Solubility <USP 34> ([2]; 50 mM Citrate, pH 7): Practically
[Compound 1] ([2]; 50 mM Citrate, pH 7): ~0 mg/mL
Final/Actual pH ([2]; 50 mM Phosphate, pH 8): 8.1
Solubility <USP 34> ([2]; 50 mM Phosphate, pH 8): Practically
[Compound 1] ([2]; 50 mM Phosphate, pH 8): Below
Final/Actual pH ([2]; 1% Poloxamer 188 in Water): 8.0
Solubility <USP 34> ([2]; 1% Poloxamer 188 in Water): Practically
[Compound 1] ([2]; 1% Poloxamer 188 in Water): ~0 mg/mL
Final/Actual pH ([2]; 1% TW80 in Water): 7.6
Solubility <USP 34> ([2]; 1% TW80 in Water): Practically
[Compound 1] ([2]; 1% TW80 in Water): ~0 mg/mL
Final/Actual pH ([2]; 10% HP-β-CD in Water): 8.2
Solubility <USP 34> ([2]; 10% HP-β-CD in Water): Practically
[Compound 1] ([2]; 10% HP-β-CD in Water): ~0 mg/mL
Final/Actual pH ([2]; 100% Water): 8.3
Solubility <USP 34> ([2]; 100% Water): Practically
[Compound 1] ([2]; 100% Water): ~0 mg/mL

The next lines start with the values.

Measured pH ([1]; 50 mM BB pH 9): pH 8.7
Solubility ([1]; 50 mM BB pH 9): Below
Measured pH ([1]; 50 mM CB pH 3): pH 3.2
Solubility ([1]; 50 mM CB pH 3): 0.8 mg/mL FB
Measured pH ([1]; 50 mM CB pH 4): pH 3.9
Solubility ([1]; 50 mM CB pH 4): 0 mg/mL FB
Measured pH ([1]; 50 mM CB pH 6): pH 5.8
Solubility ([1]; 50 mM CB pH 6): 0 mg/mL FB
Measured pH ([1]; 50 mM PB pH 2): pH 2.9
Solubility ([1]; 50 mM PB pH 2): 4.4 mg/mL FB
Measured pH ([1]; 50 mM PB pH 8): pH 7.5
Solubility ([1]; 50 mM PB pH 8): 0 mg/mL FB
Measured pH ([1]; 100% H2O): pH 3.3
Solubility ([1]; 100% H2O): 0.4 mg/mL FB
Solubility ([1]; ACN): 0.7 mg/mL FB
Solubility ([1]; Acetone): 0.4 mg/mL FB
Solubility ([1]; DMSO): 0.9 mg/mL FB
Solubility ([1]; EtOAc): 0.1 mg/mL FB
Solubility ([1]; EtOH): 5.3 mg/mL FB
Solubility ([1]; IPA): 0.8 mg/mL FB
Solubility ([1]; MeOH): 32.3 mg/mL FB
SMILES: CCCN(Cc1ccc(-c2csc(N(C)C)n2)cc1)c1cc(C)nc2c(-c3cnc(N(C)C)cc3C)c(C)nn12 [Compound 1-3 (HCl), 5-{7-[({4-[2-(dimethylamino)-1,3-thiazol-4-yl]phenyl}methyl)(propyl)amino]-2,5-dimethylpyrazolo[1,5-a]pyrimidin-3-yl}-N,N,4-trimethylpyridin-2-amine]

Measured pH ([1]; 50 mM CB pH 3): pH 3.3
Solubility ([1]; 50 mM CB pH 3): 1.7 mg/mL FB
Measured pH ([1]; 50 mM CB pH 4): pH 4.1
Solubility ([1]; 50 mM CB pH 4): 0 mg/mL FB
Measured pH ([1]; 50 mM CB pH 5): pH 5.0
Solubility ([1]; 50 mM CB pH 5): 0 mg/mL FB
Measured pH ([1]; 50 mM CB pH 6): pH 6.1
Solubility ([1]; 50 mM CB pH 6): 0 mg/mL FB
Measured pH ([1]; 50 mM PB pH 2): pH 3.1
Solubility ([1]; 50 mM PB pH 2): 3.3 mg/mL FB
Measured pH ([1]; 50 mM PB pH 7): pH 7.1
Solubility ([1]; 50 mM PB pH 7): 0 mg/mL FB
Measured pH ([1]; 50 mM PB pH 8): pH 8.1
Solubility ([1]; 50 mM PB pH 8): 0 mg/mL FB
Measured pH ([1]; 100% H2O): pH 8.3
Solubility ([1]; 100% H2O): 0 mg/mL FB
SMILES: CCCN(Cc1ccc(-c2csc(N(C)C)n2)cc1)c1cc(C)nc2c(-c3cnc(N(C)C)cc3C)c(C)nn12 [Compound 1-2 (FB), 5-{7-[({4-[2-(dimethylamino)-1,3-thiazol-4-yl]phenyl}methyl)(propyl)amino]-2,5-dimethylpyrazolo[1,5-a]pyrimidin-3-yl}-N,N,4-trimethylpyridin-2-amine]

Measured pH ([1]; 50 mM BB pH 9): pH 4.3
Solubility ([1]; 50 mM BB pH 9): Below
Measured pH ([1]; 50 mM CB pH 3): pH 3.2
Solubility ([1]; 50 mM CB pH 3): 0.3 mg/mL FB
Measured pH ([1]; 50 mM CB pH 4): pH 3.9
Solubility ([1]; 50 mM CB pH 4): 0 mg/mL FB
Measured pH ([1]; 50 mM CB pH 6): pH 5.3
Solubility ([1]; 50 mM CB pH 6): Below
Measured pH ([1]; 50 mM PB pH 2): pH 2.5
Solubility ([1]; 50 mM PB pH 2): 3.9 mg/mL FB
Measured pH ([1]; 50 mM PB pH 8): pH 6.2
Solubility ([1]; 50 mM PB pH 8): Below
Measured pH ([1]; 100% H2O): pH 3.4
Solubility ([1]; 100% H2O): 0 mg/mL FB
Solubility ([1]; ACN): 3.6 mg/mL FB
Solubility ([1]; Acetone): 4.1 mg/mL FB
Solubility ([1]; DMSO): >2.5 mg/mL FB
Solubility ([1]; EtOAc): 1.2 mg/mL FB
Solubility ([1]; EtOH): 6.5 mg/mL FB
Solubility ([1]; IPA): 1.9 mg/mL FB
Solubility ([1]; MeOH): 27.1 mg/mL FB
SMILES: CCCN(Cc1ccc(-c2csc(N(C)C)n2)cc1)c1cc(C)nc2c(-c3cnc(N(C)C)cc3C)c(C)nn12 [Compound 1-4 (Maleate), 5-{7-[({4-[2-(dimethylamino)-1,3-thiazol-4-yl]phenyl}methyl)(propyl)amino]-2,5-dimethylpyrazolo[1,5-a]pyrimidin-3-yl}-N,N,4-trimethylpyridin-2-amine]
